The subject of one experiment is MDA-MB-231 cells. In words: Cell migration, wound healing (scratch) assay. The experiment is classed as cell-based, human. The conditions noted are these: from AUC0-18h of wound confluence, n = 5; for logEC50 (migration of MDA-MB-231 cells): mean ± SEM. The protocol: The effect of compounds on cell migration was studied using wound healing assay (or scratch assay). Triple-negative breast cancer MDA-MB-231 cells were seeded in 24-well microplate at the cell density 12.5 × 10^4 cells/cm^2 (1 mL final volume) and left 24 h to attach and create a confluent monolayer. The cell monolayer was scratched with 200 µL pipette tip, producing a vertical straight wound in the middle of the well; growth medium was removed and wells were washed twice with growth medium to remove all detached cells. […] Wound closure was analyzed as a confluence of the initial cell-free area covered by migrating cells at the indicated time points measured with Gen 5 Image Analysis software. Confluence was calculated using the following formula: C(t) = [(Object Sum Area(t) − Object Sum Area(0))/(I(A) − Object Sum Area(0))] × 100, where C(t) is the percent wound confluence over time, Object Sum Area(t) is the area covered by cells at each time point, Object Sum Area(0) is the area covered by cells at time 0 h and I(A) is the total area of the 4X image.

The test system of experiment [1] is VEGF secretion by MDA-MB-231 cells. In words: VEGF production, Human VEGF Quantikine ELISA of cell culture medium. Format: cell-based. The conditions noted are these: MDA-MB-231, 5–20 µM, 12 h. As to the method:
MDA-MB-231 cells were seeded in 96-well microplates at the cell density 1.5 × 10^4 cells/cm^2 (final volume 200 µL/well) and left 24 h to attach. […] VEGF concentration in cell culture medium was determined in undiluted samples in duplicate using the Human VEGF Quantikine ELISA Kit (R&D Systems Inc., Minneapolis, MN, USA) according to the manufacturer’s protocol. In brief, 200 μL of conditioned media was added to a 96-well microplate pre-coated with monoclonal antibody for human VEGF and the plate was incubated for 2 h. After washing with wash buffer, enzyme-linked polyclonal antibody specific for human VEGF was added, followed by incubation for 2 h. The plate was washed to remove unbound antibody-enzyme reagent, substrate solution was added and incubated for 30 min and the reaction was terminated by the addition of the stop solution, producing a yellow solution. The optical density at 450 nm with wavelength correction at 540 nm was measured using a Synergy HT microplate reader (BioTek, Winooski, VT, USA). The concentration of VEGF was interpolated from the standard curve (15.6–1000 pg/mL) prepared in parallel.
For orientation: In an ELISA, binding on a coated surface is turned into a signal by an enzyme label.

Experiment [2] concerns MDA-MB-231 breast tumors. In words: Histology, Ki-67 immunohistochemistry and TUNEL assay of xenograft tumors. Format: in vivo, mice. The following applies: Pd2Spm 5 mg/kg/day, cisplatin 2 mg/kg/day, versus vehicle. The protocol:
For the immunohistochemical study, tissue sections were dewaxed and rehydrated. Slides were submitted to […] by immersion in 10% retrieval solution (Dako) and kept in a water bath at 100 °C for 20 min. After blocking of non-specific staining, slides were incubated with primary antibody for Ki-67 (1:50 dilution, clone MIB-1, Dako) overnight at 4 °C. Slides were then stained with Novolink Polymer Detection Systems (Leica Biosystems Inc., Buffalo Grove, IL, USA) following manufacturer’s instructions, counterstained with hematoxylin and permanently mounted. The nuclear Ki-67 staining was analyzed using Fiji’s high-throughput automatic quantitation with Andy’s Algorithm pipeline, as described elsewhere. The immunoreactivity was evaluated, counting at least 600 nuclei/field from 5 representative fields of the lesion at high magnification, avoiding necrotic areas. The ratio of Ki-67 positive nuclei per all counted nuclei was expressed as a percentage (Ki-67 proliferation index).
The paraffin-embedded tumor sections were deparaffinized, rehydrated through a graded series of ethanol and double distilled water and then stained with In Situ Cell Death Detection Kit (Roche Diagnostics GmbH, Mannheim, Germany) as per manufacturer’s instructions. Apoptosis was quantified at single-cell level by counting the number of cells positive for terminal deoxynucleotidyl transferase (TdT) dUTP nick-end labeling (TUNEL-positive cells). Briefly, tumor sections were incubated with 20 µg/mL proteinase K solution (in 10 mM Tris/HCl, pH 7.4–8) for 30 min at 37 °C. Slides were washed and stained with TUNEL reaction mixture (mixture of terminal deoxynucleotidyl transferase with labeled nucleotides) for 60 min at 37 °C in the dark followed by three washes. Slides were mounted with […] Antifade Mounting Medium with DAPI, and coverslips were sealed. At least twenty nonoverlapping high-power microscope fields of each tumor section were captured while avoiding areas with central necrosis. Fluorescence images were acquired using the LionHeart automated microscope at Ex: 520–560 nm and Em: 570–620 nm.

Experiment [3] has as its system chicken embryo chorioallantoic membrane (CAM). In words: In vivo CAM assay (neovascularization). The conditions noted are these: for CAM early steps of angiogenesis: number of nodes, junctions and segments / CAM later steps of angiogenesis: total length, total branching length and total segment length: 2 to 8 µM. As to the method: The chicken embryo chorioallantoic membrane (CAM) assay was used to study the effect of tested drugs on neovascularization, as described elsewhere. Briefly, fertilized chicken eggs were incubated at 37.5 °C in a humidified atmosphere with agitation. After 3 days of incubation, 2.5 mL of albumen was removed to detach developing CAM from the shell. A window in the eggshell was cut off to expose the embryo, and then, the eggshell was sealed with paraffin. Incubation of fertilized eggs continued until day 9, when the windows were unsealed and four paper disks previously sterilized and pre-treated with hydrocortisone ([…] to avoid inflammatory responses) were placed in direct contact with CAM in each egg (3 PBS-soaked disks and 1 VEGF-soaked (10 ng/mL) disk), and windows were re-sealed with paraffin. […] The remaining two disks were used as negative/vehicle (treated with PBS) and positive (treated with VEGF) controls. The eggs were further incubated two more days, and at […], the disks bound to the CAM were removed, placed in PBS and imaged using a contrast-phase microscope (Motic® AE200 inverted microscope, Spectra Services, VWR International) (with a 4X magnification) coupled to a Moticam 5 digital camera. Images were analyzed using the Angiogenesis Analyzer for Fiji.

A further experiment concerns MCF-12A cells. In words: Cell proliferation assay (label-free live cell counting), MCF-12A. The experiment is classed as cell-based, human. The conditions noted are these: for logIC50 ± SEM: n = 4.
For experiment [4], the system named is MDA-MB-231 breast tumors. In words: Subcutaneous in vivo breast cancer xenograft study, tumor growth. Also noted: species or system mice. The following applies: i.p. 5 consecutive days, Pd2Spm 5 mg/kg/day, cisplatin 2 mg/kg/day; for tumor growth reduction (versus the vehicle group): end of experiment (day 39 post-implantation); for average tumor volumes compared to vehicle-treated control mice: p < 0.05. As to the method: Female CBA nude (N:NIH(S)II-nu/nu) mice (6–7 weeks old, 21 animals in total) with combined immunodeficiency were purchased from i3S Animal Facility (Porto, Portugal). Animals were acclimatized at ICBAS-UP Rodent Animal House Facility (Porto, Portugal) at least one week prior to the experiments, were randomly distributed into groups of three per individually ventilated cage and were housed under controlled specific-pathogen-free (SPF) environmental conditions (temperature 22.5 ± 1.5 °C; relative humidity 50 ± 10%; 12 h light/dark cycle) with ad libitum access to water and standard pellet food (4RF21, Mucedola, Italy). Environmental enrichment included corncob bedding, paper roll tube and one large sheet of tissue paper for nesting. Animals were monitored daily for health status and welfare.

Where [5] appears, read: 48 h of incubation, n = 4, read-out: IC50 in µM [95% CI].
[6] abbreviates: 72 h of incubation, n = 4, read-out: IC50 in µM [95% CI].

Molecules are shown by their SMILES. Like-named read-outs stand apart in the source and are kept apart here.

For `N.N.[Cl][Pt][Cl]` [Cisplatin, cis-dichlorodiammine platinum(II), reference compound], the “logEC50 (migration of MDA-MB-231 cells)” value with MDA-MB-231 cells is given as −4.329 ± 0.130. The EC50 (as a rule, the concentration that produces a half-maximal response) in the experiment on MDA-MB-231 cells was 46.9 µM. Besides, the “VEGF secretion in cell culture medium” value in experiment [1] was “inhibited VEGF secretion in cell culture medium in a dose-dependent manner”. Also, in the experiment with MDA-MB-231 breast tumors [2], the “TUNEL-positive cells in tumors (DNA damage)” value is listed as “significant increase”. In the experiment on MDA-MB-231 breast tumors [2], the “mitotic count in tumors” value is “mitotic count of vehicle-treated animals was significantly increased compared to cisplatin- and Pd2Spm-treated groups”. Also, in experiment [3], the “CAM early steps of angiogenesis: number of nodes, junctions and segments” value is “decrease, in a dose-dependent manner”. Besides, the “CAM later steps of angiogenesis: total length, total branching length and total segment length” value in experiment [3] is “reduced, in a dose-dependent manner”. Moreover, the “logIC50 ± SEM” value was −5.510 ± 0.062 with MCF-12A cells (24 h of incubation), −5.988 ± 0.029 in the experiment with MCF-12A cells (48 h of incubation) and −5.981 ± 0.026 in the experiment on MCF-12A cells (72 h of incubation). The IC50 – broadly, the concentration needed to halve the response being measured – turned out to be 3.1 µM with MCF-12A cells (24 h of incubation, n = 4, read-out: IC50 in µM [95% CI]); 1 µM in the experiment on MCF-12A cells (setting [5]); 1 µM in the experiment with MCF-12A cells (setting [6]). Moreover, in the experiment with MDA-MB-231 breast tumors [4], the “tumor growth reduction (versus the vehicle group)” value is on record as 56.6%. In addition, the “average tumor volumes compared to vehicle-treated control mice” value in the experiment on MDA-MB-231 breast tumors [4] was “significantly lower”.

As to `NCCCNCCCCNCCCN.[Cl][Pd][Cl].[Cl][Pd][Cl]` [Pd2Spm, dinuclear palladium(II)-spermine chelate], in the experiment with MDA-MB-231 cells, the “logEC50 (migration of MDA-MB-231 cells)” value is on record as −4.243 ± 0.113 and a half-maximal response (EC50) required 57.2 µM. The “VEGF secretion in cell culture medium” value in experiment [1] is reported as “inhibited VEGF secretion in cell culture medium in a dose-dependent manner”. In the experiment with MDA-MB-231 breast tumors [2], the “Ki-67 index of tumors” value is “significantly decreased”; the “TUNEL-positive cells in tumors (DNA damage)” value is recorded as “significant increase”; the “mitotic count in tumors” value was “mitotic count of vehicle-treated animals was significantly increased compared to cisplatin- and Pd2Spm-treated groups”. In addition, the “angiogenesis in CAM at single concentration” value in experiment [3] (8 µM (4.46 µg/mL)) was “significantly inhibited angiogenesis”. Further, in experiment [3], the “CAM early steps of angiogenesis: number of nodes, junctions and segments” value is “decrease, in a dose-dependent manner”; the “CAM later steps of angiogenesis: total length, total branching length and total segment length” value is “reduced, in a dose-dependent manner”. For the same compound, the “growth inhibition at the highest concentration” value in the experiment with MCF-12A cells (100 µM, compared to same dosage of cisplatin) was “did not produce a maximum growth inhibition”. The IC50 with MCF-12A cells (24-72 h, read-out: IC50 values (range over incubation times)) was 89.5 to 229 µM. Further, in the experiment with MCF-12A cells (48 h of incubation), the “logIC50 ± SEM” value is −4.039 ± 0.023. The IC50 with MCF-12A cells (setting [5]) is 91.5 µM. In addition, the “logIC50 ± SEM” value with MCF-12A cells (72 h of incubation) is reported as −4.048 ± 0.068. Further, in the experiment with MCF-12A cells (setting [6]), the IC50 worked out at 89.5 µM. In the experiment on MDA-MB-231 breast tumors [4], the “tumor growth reduction (versus the vehicle group)” value is recorded as 43.3% and the “average tumor volumes compared to vehicle-treated control mice” value is on record as “significantly lower”.
